Measurements taken from patent US20100048577A1, “Method for treating benign prostate hyperplasia using resveratrol” (priority 2008, published 2010).

What was measured:
[1] = system: BPH (prostate weight/body weight indices); assay: Cure or prevention of testosterone enanthate induced BPH, fortified diets, prostate weight/body weight index at day 29 (Example 2); type: in vivo; conditions: testosterone enanthate 25 mg i.m. days 1 and 7, diet with 1 g/kg resveratrol or trimethoxystilbene, 625 mg/kg saw palmetto, or finasteride 10 mg s.c. on 5 days
Protocol: These experiments were designed to determine whether resveratrol and trimethoxystilbene could cure or prevent BPH. Experimental animals received diets that were fortified with one of trans-resveratrol (1 g/kg), trimethoxystilbene (1 g/kg), or saw palmetto (625 mg/kg). An additional group of animals received injections of finasteride fourteen days after the start of the experiment. The animals received one, subcutaneous injection of 10 mg of finasteride in 0.1 ml dimethyl sulfoxide on 5 consecutive days. All animals, except the absolute control group, received injections of testosterone enanthate (25 mg, in 0.1 ml mineral oil). The injections were administered intramuscularly, on days 1 and 7 of the study. The absolute control group received intramuscular injections of 0.1 ml of mineral oil. At day 29, all test animals were weighed, sacrificed and their prostates were dissected free of fat and weighed. Prostate weight/body weight indices were determined for each group.

[2] = system: induced BPH (prostate weight/body weight ratio); assay: Testosterone enanthate induced BPH in rats, prostate weight after 29 days of treatment (Example 1); type: in vivo; conditions: Sprague Dawley rats, finasteride 10 mg s.c., resveratrol 1 g/kg in diet, saw palmetto 625 mg/kg in diet
Protocol: Sexually mature Sprague Dawley rats were given two, intramuscular injections of testosterone enanthate, at 25 mg. This induced BPH.
Animals were then divided into different groups. A first group of 5 animals received finasteride, via subcutaneous injection at a dose of 10 mg. A second group received 1 g/kg of body weight of resveratrol, mixed into their diet. A third group received saw palmetto, at 625 mg/kg, mixed into their diet. The control group received the vehicle for the active material only with no active ingredient.
Following 29 days of treatment, all animals were sacrificed. Prostates were dissected free of fat, and weighed.
The injection of the testosterone enanthate increased the prostate weight/body weight ratio by about 2-fold.

PSA = PSA expression in prostate tissue of the experimental animals by quantitative PCR (Example 4); type: in vivo; conditions: animals treated as in Example 2
Protocol: In additional experiments following the details of example 2, supra, levels of PSA expression were tested.
Prostate tissue from the experimental animals was subjected to quantitative PCR, using well known methods. The expression of PSA was compared in untreated, and in resveratrol, and trimethoxystilbene treated animals.

[3] = system: Normal human prostate endothelial cells (ATCC CRL-11611); assay: Gene expression of normal human prostate cells treated or not treated with resveratrol (Example 3); type: cell-based; conditions: resveratrol 50 μM, 48 hours
Protocol: Normal human prostate endothelial cells were obtained from the ATCC (CRL-11611), and were either treated or not treated with resveratrol, at 50 μM, for 48 hours. Gene expression of the cells was compared, via standard methods.

Row | Compound | prostates (weight) compared with controls [1] | effect on testosterone enanthate induced BPH (increased prostate weight/body weight ratio) [2] | level of PSA expression relative to that of the controls (PSA) | share of the 376 genes known to be involved with apoptosis showing significant down regulation following treatment [3]
1 | CC(C)(C)NC(=O)[C@H]1CC[C@H]2[C@@H]3CC[C@H]4NC(=O)C=C[C@]4(C)[C@H]3CC[C@]12C [finasteride, Finasteride, reference compound] | indistinguishable from controls | completely reversed the effect | – | –
2 | Oc1ccc(/C=C/c2cc(O)cc(O)c2)cc1 [resveratrol, trans-3,5,4′-trihydroxystilbene] | indistinguishable from controls | reversed the induced BPH | about ⅓ | about 10%
3 | COc1ccc(/C=C/c2cc(OC)cc(OC)c2)cc1 [trimethoxystilbene] | indistinguishable from controls | – | about ⅓ | –
